Measurements reported in ChEMBL document CHEMBL6078696, “Nanomolar activity of coumarin-3-thiosemicarbazones targeting Trypanosoma cruzi cruzain and the T. brucei cathepsin L-like protease” (Eur J Med Chem, 2025).

Assays:
[1] = Cytotoxicity against mouse C2C12 cells at 10 uM relative to control; format: toxicity, cell-based; settings: read-out: INH
[2] = test system: Trypanosoma cruzi; assay: Antitrypanosomal activity against intracellular Trypanosoma cruzi amastigotes infected in mouse C2C12 cells at 10 uM incubated for 48 hrs by DAPI staining based analysis relative to control; format: functional
[3] = Cytotoxicity against HEK293 cells at 50 uM incubated for 48 hrs by resazurin reduction assay relative to control; format: toxicity, cell-based; settings: human, read-out: INH
[4] = test system: Trypanosoma brucei; assay: Antitrypanosomal activity against Trypanosoma brucei trypomastigotes assessed as parasite growth inhibition at 50 uM incubated for 72 hrs by resazurin dye based assay relative to control; format: functional
[5] = target: Cruzipain (Trypanosoma cruzi) (UniProt P25779); assay: Inhibition of recombinant Trypanosoma cruzi CRZ using Z-Phe-Arg-aminomethylcoumarin as substrate at 50 uM preincubated for 10 mins followed by substrate addition by fluorimetry relative to control
Cruzipain (Trypanosoma cruzi), sequence (P25779 123-467 limits assumed): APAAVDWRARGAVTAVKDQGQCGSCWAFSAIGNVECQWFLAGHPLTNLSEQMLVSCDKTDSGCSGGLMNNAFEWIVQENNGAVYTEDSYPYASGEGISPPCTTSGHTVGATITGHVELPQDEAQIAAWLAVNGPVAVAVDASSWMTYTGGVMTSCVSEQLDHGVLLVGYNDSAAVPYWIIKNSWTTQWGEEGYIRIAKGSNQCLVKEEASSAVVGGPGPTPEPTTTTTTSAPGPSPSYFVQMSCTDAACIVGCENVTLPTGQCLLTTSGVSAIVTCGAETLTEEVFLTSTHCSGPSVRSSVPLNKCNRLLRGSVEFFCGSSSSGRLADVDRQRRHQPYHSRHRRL

[6] = test system: Trypanosoma brucei; assay: Inhibition of recombinant Trypanosoma brucei CATL using Z-Phe-Arg-aminomethylcoumarin as substrate at 50 uM preincubated for 10 mins followed by substrate addition by fluorimetry relative to control
[7] = test system: Trypanosoma cruzi; assay: Antitrypanosomal activity against Trypanosoma cruzi amastigotes infected in cell model; format: functional, organism-based
[8] = target: T1, Cruzipain (Trypanosoma cruzi, UniProt P25779); assay: Inhibition of Trypanosoma cruzi CRZ
T1 sequence (P25779 whole entry): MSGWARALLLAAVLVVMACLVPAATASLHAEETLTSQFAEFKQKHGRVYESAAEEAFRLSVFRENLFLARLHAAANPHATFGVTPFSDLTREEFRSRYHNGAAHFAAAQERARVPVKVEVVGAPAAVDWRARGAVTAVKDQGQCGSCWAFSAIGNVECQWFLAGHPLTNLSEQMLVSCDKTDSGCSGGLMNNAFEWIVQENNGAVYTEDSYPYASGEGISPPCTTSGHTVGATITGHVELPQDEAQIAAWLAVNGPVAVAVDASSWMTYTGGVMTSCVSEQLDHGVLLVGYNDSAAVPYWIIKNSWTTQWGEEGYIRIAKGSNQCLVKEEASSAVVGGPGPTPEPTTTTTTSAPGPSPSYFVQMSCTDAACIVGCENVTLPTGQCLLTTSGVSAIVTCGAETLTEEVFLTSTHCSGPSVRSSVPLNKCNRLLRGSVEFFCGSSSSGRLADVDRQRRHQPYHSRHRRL

[9] = Inhibition of Trypanosoma brucei CATL
[10] = Cytotoxicity against HEK293 cells incubated for 48 hrs by resazurin reduction assay; format: toxicity, cell-based; settings: human
[11] = target: T1, Cruzipain; assay: Inhibition of recombinant Trypanosoma cruzi CRZ using Z-Phe-Arg-aminomethylcoumarin as substrate preincubated for 10 mins followed by substrate addition by fluorimetry
[12] = test system: Trypanosoma brucei; assay: Potency index, ratio of FN-27 IC50 to test compound IC50 recombinant Trypanosoma brucei CATL
[13] = target: Cruzipain (Trypanosoma cruzi) (UniProt P25779); assay: Potency index, ratio of FN-27 IC50 to test compound IC50 recombinant Trypanosoma cruzi CRZ
[14] = Inhibition of recombinant Trypanosoma brucei CATL using Z-Phe-Arg-aminomethylcoumarin as substrate preincubated for 10 mins followed by substrate addition by fluorimetry
[15] = Selectivity index, ratio of CC50 for cytotoxicity against HEK293 cells to EC50 for Trypanosoma brucei trypomastigotes; format: toxicity, cell-based; settings: human, read-out: Ratio CC50/EC50
[16] = test system: Trypanosoma brucei; assay: Antitrypanosomal activity against Trypanosoma brucei trypomastigotes assessed as parasite growth inhibition incubated for 72 hrs by resazurin dye based assay; format: functional, organism-based

SMILES | cytotoxicity at 10 µM [1] [%] | inhibition at 10 µM [2] [%] | cytotoxicity at 48 h, 50 µM [3] [%] | inhibition at 50 µM [4] [%] | inhibition [5] [%] | inhibition [6] [%] | further results
COc1cc(OC)c2cc(C(=O)NCc3ccccc3)c(=O)oc2c1 | 0 | 17 | 23 | 3 |  |  | 
O=C(c1cc2ccccc2oc1=O)N1CCN(c2ccccc2)CC1 | 0 | 8 | 11 | 17 | 48 | 34 | 
O=C(c1cc2cc(I)ccc2oc1=O)N1CCN(c2ccccc2)CC1 | 0 | 5 | 13 | 12 | 2 | 19 | 
O=C(NCc1ccccc1)c1cc2ccccc2oc1=O | 10 | 6 | 3 | 38 | 1 | 7 | 
N=C(N)c1ccc(OCCCCCOc2ccc(C(=N)N)cc2)cc1 [PENTAMIDINE] |  |  |  | 100 |  |  | 
O=C(NCCc1c[nH]c2ccccc12)c1cc2cc(I)ccc2oc1=O | 1 | 7 | 41 | 39 | 7 | 18 | 
COc1cc(OC)c2cc(C(=O)N3CCN(c4ccccc4)CC3)c(=O)oc2c1 | 0 | 2 | 18 | 15 | 3 | 24 | 
COc1cccc2cc(/C(C)=N/NC(N)=S)c(=O)oc12 |  |  |  |  |  |  | EC50 [7]: 5.5 µM; IC50 [8]: 14.4 µM; IC50 [9]: 2 µM
C/C(=N\NC(N)=S)c1cc2ccc(C)cc2oc1=O | 0 | 52 | 10 | 23 | 98 | 97 | CC50 at 48 h [10]: 114 µM; IC50 [11]: 0.2 µM; Ratio IC50 [12]: 92; Ratio IC50 [13]: 72; IC50 [14]: 0.022 µM
O=C(Cn1ccnc1[N+](=O)[O-])NCc1ccccc1 [BENZNIDAZOLE] | 0 | 77 |  |  |  |  | 
COc1ccc2cc(C(=O)NCCc3c[nH]c4ccccc34)c(=O)oc2c1 | 0 | 27 | 81 | 59 |  |  | CC50 at 48 h [10]: 32.1 µM
CC(C)C[C@H](NC(=O)[C@H]1O[C@@H]1C(=O)O)C(=O)NCCCCN=C(N)N |  |  |  |  |  | 99 | 
C/C(=N\NC(N)=S)c1cc2cc(Br)ccc2oc1=O | 12 | 57 | 13 | 71 | 92 | 87 | CC50 at 48 h [10]: 52.3 µM; selectivity ratio [15]: ~1.2; IC50 [11]: 0.145 µM; EC50 [16]: 43.6 µM; IC50 [14]: 0.698 µM
O=C(NCCc1c[nH]c2ccccc12)c1cc2cc(Cl)cc(Cl)c2oc1=O | 0 | 23 | 17 | 44 | 22 | 9 | 
COc1cc(OC)c2cc(C(=O)NCCc3c[nH]c4ccccc34)c(=O)oc2c1 | 0 | 13 | 31 | 43 | 25 | 15 | 
O=C(NCCc1c[nH]c2ccccc12)c1cc2ccccc2oc1=O | 16 | 24 | 76 | 63 | 10 | 25 | CC50 at 48 h [10]: 19.6 µM
CC(C)C[C@H](NC(=O)[C@H](Cc1ccccc1)NC(=O)c1cnccn1)B(O)O [BORTEZOMIB] |  |  | 100 |  |  |  | 
O=C(c1cc2cc(Cl)cc(Cl)c2oc1=O)N1CCN(c2ccccc2)CC1 | 5 | 25 | 12 | 24 | 6 | 12 | 
C/C(=N\NC(N)=S)c1cc2ccccc2oc1=O | 0 | 49 | 11 | 40 | 97 | 88 | IC50 [11]: 0.068 µM; IC50 [14]: 0.073 µM
CCN(CC)c1ccc2cc(/C(C)=N/NC(N)=S)c(=O)oc2c1 | 11 | 44 | 80 | 56 | 30 | 77 | CC50 at 48 h [10]: 42.7 µM; IC50 [11]: 0.046 µM
COc1ccc2cc(C(=O)N3CCN(c4ccccc4)CC3)c(=O)oc2c1 | 1 | 27 | 11 | 43 | 5 | 29 | 
O=C(Nc1ccccc1)c1cc2ccccc2oc1=O | 1 | 3 | 0 | 52 | 9 | 17 | 
COc1ccc2cc(C(=O)NCc3ccccc3)c(=O)oc2c1 | 0 | 21 | 1 | 45 |  |  | 
